# Data from patent US11168052B2, “Carbamate derivative compounds, processes for preparing them and their uses” (BIO-PHARM SOLUTIONS CO., LTD., priority 2016, dated 2021).
# Legend:
# [1] = test system: Lithium-pilocarpine induced seizure in rats; assay: Lithium-pilocarpine induced epilepsy test (LI-PILO), prevention test; type: in vivo, Sprague-Dawley rats; conditions: i.p.
# Description: Male Sprague-Dawley rats (purchased from Orient Bio Inc. Korea) of body weight 175 grams were used for these studies and 3 rats per cage were housed for 4-5 days. On the day prior to SE, rats received 127 mg/kg lithium chloride (Sigma, St. Louis, Mo., U.S.A.) intraperitoneally (i.p.). Approximately 18-20 h following this treatment, rats were given an i.p. injection of the concentration capable of inducing 97% intermittent convulsions pilocarpine(Sigma, 30-43 mg/kg). An i.p. injection of 2 mg/kg methyl-scopolamine (Sigma) was administered 30 min prior to pilocarpine to block the effects of the muscarinic agonist on peripheral cholinergic receptors. Test drugs were dissolved in 20% tween80 (Sigma).
# The drugs were administered intraperitoneally (i.p.) in a volume of 2 μl/g body weight. Pharmacological effects of all of the test materials were evaluated to compare test groups (n=6) with a control group (n=6). Control group was administered vehicle only. The efficacy was measured 0.5, 1, 2, or 4 hours after the administration of the test material. The time point that the most animals were protected was defined as peak time and the ED50 was determined at peak time. The animals were then transferred to observation cages and observed continuously for 90 min Seizure was elicited in approximately 95% of the control group. Protection was defined as complete absence of seizure grade 3-5 (Racine scale; Racine, 1972) over the 90-min observation period. The effective dose of the compound necessary to protect 50% of the animals against seizures compared to controls (i.e., ED50) was determined by a curve fitting program (Excel 2007, Microsoft).
# [2] = test system: ICR mice, tail-flick analgesia meter; assay: Tail-flick test; type: in vivo; conditions: orally, withdrawal latency
# Description: To examine the pain relief effect of the carbamate compounds, a tail-flick test was conducted, referring to Current Protocols in Neuroscience; Behavioral Neuroscience Unit 8.9.
# (§1) ICR mice (male, 25-30g; Orient Bio, Korea) were habituated before test (in test room) for 1 hour. Animals were fasted 2 hr before administration of compounds. Each of Compound was orally administered at the 1-3 dose, 10 ul/g, by bodyweight (n=4-6/group). All compounds were dissolved in a vehicle of 30% (v/v) PEG 400 or 20% (v/v) Tween 80. The control group was treated the vehicle without compounds.
# After the administration of compounds, the mice tail were put on a tail-flick analgesia meter. To avoid tissue damage, maximal exposure time to pain stimuli was restricted to 15 s. The withdrawal latency was measured to the time to the point when each mouse responded. The relative values compared to the control (% control) were calculated.
# The relative values compared to the sham were calculated and shown in Table 7, which show effect of the compound of examples on tail-flick test in Mice.
# [3] = test system: MES (electroshock) seizure in mice; assay: Anti-epilepsy activity, MES test in mouse; type: in vivo, ICR mice
# Description: (§2) In the MES test (Ref., G. Villetti et al. Neuropharmacology 40(2001) 866-878), an electrical stimulus (mice: 50 mA, 60 Hz, 0.2 sec, and rats: 150 mA, 60 Hz, 0.2 sec in the test animal) supplied by an 11A Shocker (IITC Life Science Company) was delivered through corneal electrodes. All mice or rats assigned to any electroshock at peak time were treated with each test compound sample which was dissolved in 20% tween 80 prepared by saline solvent applied orally before the test. […] Three doses of the test sample were administered orally to 9-18 animals (3-6 mice per dose) for evaluating the respective doses at which 50% of the animals were protected from seizure (ED50). The ED50 value (median effective dose) was calculated by Litchfield and Wicoxon log-probit method which is a dose-response relationship. Experimental animals, male ICR mice and male SD rats, were purchased from OrientBio, Samtako, or Nara Biotech, Korea, and housed in cages (4-5 mice or 3 rats per cage) for 4-5 days. The range of mice body weight was between 19 and 25 grams and range of rats body weight was between 100 and 130 grams.
# [4] = test system: MES (electroshock) seizure in rats; assay: Anti-epilepsy activity, MES test in rats; type: in vivo, SD rats; conditions: for MES test (po) efficacy %: dose 10 mg/kg; for ED50: Rattus norvegicus, po
# Description: as §2
# [5] = test system: CFA-induced pain model in rats; assay: Antiallodynic activity on Complete Freund's Adjuvant (CFA)-induced inflammatory pain model; type: in vivo, Sprague-Dawley rats; conditions: 50 mg/kg intraperitoneally, von Frey threshold relative to sham, 0.5 hr after administration; for response vs control in vivo at 50 mg/kg: Rattus norvegicus, ip, read-out: Efficacy of 50 mg/kg(%)
# Description: Male, Sprague-Dawley rats (210-250 g, Nara Bio, Korea) were habituated for 1 week before surgery and allowed free access to food and water throughout the experimentation. Room temperature and humidity were maintained at 24±2 and 50±10%, respectively.
# CFA-induced inflammatory pain was induced by the procedure of Nagakura et al. (2003) and Gregory P. et al. (2010) with minor modifications. CFA (sigma, USA) was injected in the right plantar with a 100 ul volume under gaseous anesthesia with isoflurane. Sham controls were injected with 100 ul of saline, and preparation of the vehicle controls were identical to the group treated with compound, except for administration of vehicles without indentical to the vihecle control group.
# Tactile sensitivity (Mechanical allodynia) was evaluated using von Frey monofilaments before and after treatment, and animals were include in the study only if the withdrawal threshold value was less than 4 g. One week after CFA injection, CFA-infused animals, sham-operated animal, and vehicle-operated animals were tested for tactile sensitivity with von Frey monofilaments, with 3 trials for each animal. All Animals were placed in a stainless steel mashe chamber and habituated for 30 min in the test cage. The tactile sensitivity for ipsilateral hind paw was measured using the up-and-down method (Dixon, 1980) with seven von Frey monofilaments (0.4, 1, 2, 4, 6, 8, and 15 g) to 3 trials. The tactile sensitivity test was followed by Dixon's method (Dixon, 1980). The 50% paw withdrawal threshold for each paw was calculated using the following formula: [Xth]log=[vFr]log+ky where [vFr] is the force of the last von Frey used, k=0.2249 which is the average interval (in log units) between the von Frey monofilaments, and y is a value that depends upon the pattern of withdrawal responses (Dixon, 1980).
# Antiallodynic effect of compounds was evaluated at the dose of 50 mg/kg (n=4-6), intraperitoneally administrated in a volume of 5 ul/g bw in a vehicle of 30% (v/v) PEG or 20% (v/v) Tween 80. The test was performed peak time of efficacy (0.5 hr) after compound administration.
# The relative values compared to the sham (% control) were calculated and shown in Table 5, which show an antiallodynic effect of Compound 1 on CFA-induced pain model in rats.
# [6] = test system: PTZ (Pentylenetetrazol)-induced clonic seizure in rats; assay: Anti-epilepsy activity, scPTZ test in rats; type: in vivo, SD rats
# Description: (§3) In this experiment, each test compound sample was formulated as described in Biological Experimental Example 1, and administered intraperitoneally to the test animals (mice; ICR or Rat; SD); Experimental animals, male ICR mice and male SD rats, were purchased from OrientBio or Nara biotech, Korea, and housed 4-5 mice per a cage for 4-5 days. The range of mice body weight was used between 19 and 26 grams and range of rats body weight was used between 100 and 130 grams. After Peak time (0.5, 1, 2 and 4 hr) from the administration, PTZ (Pentylenetetrazol) was administered subcutaneously in the concentration capable of inducing 97% intermittent convulsions (mice: 100-110 mg/kg?bw, 10 μl/g, or rats: 90-110 mg/kg?bw, 2 μl/g). If clonic seizure was not observed for at least 30 minutes in the PTZ administered animal, it can be considered that the test compound has anti-epilepsy activity. The median effective dose (ED50) is determined using 6 animals per a concentration (total three different concentrations), and calculated by Litchfield and Wicoxon log-probit method which is a dose-response relationship.
# [7] = test system: acetic acid-induced writhes in ICR mice; assay: Writhing test (acetic acid); type: in vivo; conditions: Mus musculus, po
# Description: To examine the pain relief effect of the carbamate compounds, a writhing test was conducted, referring to Fischer, L. G. et al. (2008).
# as §1, with “24-28g;” for “25-30g;”, “compounds” for “Compound”, “three” for “1-3”, “bw (n=3-5/group).” for “by bodyweight (n=4-6/group).”
# 0.2-2 hour after the administration of compounds, 0.6% acetic acid at the dose of 10 ul/g by bodyweight was injected into the mice Animals were habituated in the cage for 5 min. 5 min after habituation, the number of writhes (abdominal constriction) was counted for 15 min, referring to Korzeniewska-Rybicka, I. et al. (1998) and compared with that of a control.
# The relative values compared to the control (% control) were calculated and shown in […]
# [8] = test system: PTZ (Pentylenetetrazol)-induced clonic seizure in mice; assay: Anti-epilepsy activity, scPTZ test in mouse; type: in vivo, ICR mice
# Description: as §3
# [9] = po, read-out: MES test (po) efficacy %
Compound,Lithium pilocarpine model (pre) efficacy % ([1]; dose 100 mg/kg) [%],ED50 ([3]; po) [mg/kg],response vs control in vivo at 50 mg/kg [5] [%],ED50 [4] [mg/kg],other results
"NC(=O)O[C@H]1Cc2cccc(Cl)c2[C@@H]1O [Example 54, (1S, 2S)-7-chloro-1-hydroxy-2,3-dihydro-1H-inden-2-yl carbamate]",83.3,26.7,,,Tail-flick test Dose [2]: >200 mg/kg; MES test (po) efficacy % [4]: 33.3%
"NC(=O)O[C@@H]1c2c(Cl)cccc2C[C@@H]1O [Example 64, (1R, 2S)-7-chloro-2-hydroxy-2,3-dihydro-1H-inden-1-yl carbamate]",50,48.4,43.7,17.8,Tail-flick test Dose [2]: >200 mg/kg; scPTZ test (ip) efficacy % ([6]; dose 50 mg/kg): 50%
"NC(=O)O[C@H]1c2c(F)cccc2CC[C@H]1O [Example 25, (1S, 2R)-8-fluoro-2-hydroxy-1,2,3,4-tetrahydronaphthalen-1-yl carbamate]",,,,,"Lithium pilocarpine model (pre) efficacy % ([1]; dose 10 mg/kg): 33.3%; responders at 50 mg/kg ([3]; po, dose 50 mg/kg, read-out: MES test (po) efficacy %): 75%; MES test (po) efficacy % [4]: 33.3%"
"NC(=O)O[C@@H]1CCc2cccc(F)c2[C@@H]1O [Example 10, (1S, 2R)-8-fluoro-1-hydroxy-1,2,3,4-tetrahydronaphthalen-2-yl carbamate]",66.6,,35.2,17.5,"responders at 100 mg/kg [3, 9]: 100%"
"NC(=O)O[C@H]1c2c(Cl)cccc2CC[C@H]1O [Example 18, (1S, 2R)-8-chloro-2-hydroxy-1,2,3,4-tetrahydronaphthalen-1-yl carbamate]",16.6,45.8,50.2,18.8,"ED50 [7]: 55.6 mg/kg; scPTZ test (ip) efficacy % ([6]; dose 50 mg/kg): 50 (33.3%,"
"8-chloro-1-hydroxy-1,2,3,4-tetrahydronaphthalen-2-yl carbamate (mixture of SR & RS) [Example 3]",,,,,Efficacy of 50 mg/kg(%) [5]: 22.9%; MES test (po) ED50 [3]: 27.3 mg/kg; MES test (po) ED50 [4]: 12.1 mg/kg; PTZ test (ip) ED50 [8]: 25.2 mg/kg
"NC(=O)O[C@@H]1Cc2cccc(Cl)c2[C@@H]1O [Example 51, (1S, 2R)-7-chloro-1-hydroxy-2,3-dihydro-1H-inden-2-yl carbamate]",,37,40.1,17.1,"scPTZ test (ip) efficacy % ([6]; dose 100 mg/kg): 100 (33.3%,"
"NC(=O)O[C@@H]1Cc2cccc(F)c2[C@@H]1O [Example 55, (1S, 2R)-7-fluoro-1-hydroxy-2,3-dihydro-1H-inden-2-yl carbamate]",33.3,51.9,34.4,,
"NC(=O)O[C@H]1c2c(Cl)cccc2C[C@H]1O [Example 63, (1S, 2R)-7-chloro-2-hydroxy-2,3-dihydro-1H-inden-1-yl carbamate]",,51.9,53.1,19.1,"scPTZ test (ip) efficacy % ([6]; dose 100 mg/kg): 100 (83.3%,"
"NC(=O)O[C@H]1CCc2cccc(Cl)c2[C@@H]1O [Example 5, (1S, 2S)-8-chloro-1-hydroxy-1,2,3,4-tetrahydronaphthalen-2-yl carbamate]",,,30,,"responders at 100 mg/kg [3, 9]: 100%; PTZ test (ip) efficacy % ([8]; dose 100 mg/kg): 100(16.6%)"
